Assay results reported in patent US20090325202A1, “Methods for Developing and Assessing Therapeutic Agents” (priority 2006, published 2009).

Tests used:
ERK1/2 [1] = assay: Phospho-/total ERK1/2 ELISA in EGF-stimulated T-47D cell smears; type: cell-based, human; details: T-47D cells, AG1478 0.5 uM, PD98059 20 uM
Description: T47D cells were maintained in Dulbecco's modified Eagle's medium (Life Technologies, Inc.) supplemented with 10% fetal calf serum and antibiotics (Life Technologies, Inc.). Prior to EGF (Sigma) stimulation, cells were starved for 24 h in serum-free medium.
Total cell lysates were obtained from either cells cultured in vitro or from tumor FNAB samples. Protein extracts were resolved by 4-15% SDS-PAGE and probed with Rabbit anti-EGFR, anti-phospbo-EGFR, anti-ERK1 and anti-phospho-ERK antibodies obtained from New England Biolabs (Beverly, Mass.). Immunoreactive proteins were visualized by enhanced chemiluminescence (Amersham International, United Kingdom). Total and phospho-ERK1/2 proteins were quantified by sandwich [LISA kits (BioSource International, Camarillo, Calif., USA) as described in the manufacturer's protocols. The reaction was read at 450 nm in an ELISA plate reader.
Western blot analysis of protein samples is a conventional method for phosphoprotein analysis. However, Western blot analysis is limited in throughput and quantitative precision, and also requires large sample amounts. […] Therefore, it was tested if quantitative ELISA assays can be applied to cytologic samples to increase the assay sensitivity to measure the expression levels and activation status of specific signaling pathways. […]

ERK1/2 [2] = assay: Ex vivo treatment of human breast cancer cells obtained by FNAB, ERK1/2 phosphorylation; type: cell-based; details: 3 hours, AG1478 0.5 uM, PD98059 20 uM
Description: (§1) To obtain cancer cells cancer tumor tissue was sampled four times with a sterile 25G short needle and tumor samples were immediately transferred into 10 ml sterile prewarmed complete RPMI-1640 culture medium containing 10% fetal calf serum, penicillin (200 ug/ml) and streptomycin (200 ug/nil). After centrifugation and cells were resuspended and distributed in 6-well microculture plates and treated in duplicates with vehicle alone (DMSO control), an EGFR inhibitor AG1478 (0.5 uM) (Calbiochem, 658548), a MEK/ERK inhibitor PD98059 (20 uM) (Biosource International, PHZ 1164) or with a PI3K/AKT inhibitor LY294002 (10 uM) (Biosource International, PHZI 144) in a humidified 5% CO2 incubator at 37° C. for 3 hours.
(§2) Following treatment nonadherent and adherent cells (collected by scraping) were pooled together in a 1.5 ml microcentrifuge tube and centrifuged at 500×g for 5 min at 4° C. After washing with PBS, cells were lysed in 100 μl of ice-cold lysis buffer and therapy-induced changes n the expression and phosphorylation levels of AKT and ERK1/2 were detected by Western blot.

AKT = assay: Ex vivo treatment of human breast cancer cells obtained by FNAB, AKT phosphorylation; type: cell-based; details: 3 hours, AG1478 0.5 uM, LY294002 10 uM
Description: as §1, §2

ERK1/2 [3] = assay: Panc 265 xenograft FNAB cells treated ex vivo, ERK1/2 phosphorylation; type: cell-based, human; details: Panc 265 FNAB cells; ZD1839 5 uM; 6 hours
Description: (§3) To obtain cancer cells, each animal tumor was sampled as described above. After collection of tumor FNAB samples, xenograft animals were subsequently treated with ZD1839 or CCI-779 for 28 days and tumor volumes were determined as described above. At day 7 of therapy, AD/DQ slides were prepared from tumor FNAB samples to retrospectively correlate the results of in vivo and ex vivo chemosentitivty tests from the same xenograft animal.
To determine viability of tumor cells obtained by FNAB, trypan blue dye exclusion assay was performed. The viability of tumor cells obtained by tumor FNAB from control animals was over 95%. Approximately 75,000 tumor cells were seeded into each well of a 6-well polypropylene microplate. Cells were treated in duplicates with vehicle (control) or with ZD1839 (5 uM) or CCI-779 (1 uM) in a humidified 5% CO2 incubator at 37° C. for different periods to determine the optimal treatment time to analyze drug effects.
(§4) After the treatment cells were collected, protein extracts were prepared and Western blot analysis was performed as described above. The ex vivo effect of ZD 1839 and CCI-779 on phosphorylation of ERK1/2 or S6 ribosomal proteins, respectively, was correlated with the in vivo data gathered from the FNAB smears prepared at day 7 of treatment.

ERK1/2 [4] = assay: Panc 265 xenograft in vivo FNAB smears, ERK1/2 activity; parameters: species or system human; details: ZD1839 150 mg/Kg daily i.p., FNAB day 7
Description: Animals were either untreated or treated with ZD1839: 150 mg/Kg daily or CCI-779: 20 mg/kg days 1-5 by intraperitoneal injection
as §3, §4

HuCCT-1 tumors = assay: HuCCT-1 xenograft tumor growth; type: in vivo, athymic (nu+/nu+) mice; details: single agents: gefitinib 150 mg/Kg i.p. days 1-5 and 8-12, CI-1040 150 mg/Kg twice a day oral days 1-14
Description: (§5) Four to 6-week-old female athymic (nu+/nu+) mice were purchased from Harlan (Harlan Laboratories, Washington, D.C.). The research protocol was approved by the Johns Hopkins University Animal Care Committee and animals were maintained in accordance with the guidelines of the American Association of Laboratory Animal Care. […] Mice were monitored daily for signs of toxicity and were weighed three times per week. Tumor size was evaluated three times per week by caliper measurements using the following formula: tumor volume=[length×width^2]/2. Tumor growth inhibition was calculated by tumor volume of treated mice divided by tumor volume of control mice. Experiments were terminated on day 14.
To explore the feasibility of implementing this method in in vivo studies, mouse xenografts were next employed to test whether FNAB material obtained from tumor tissue can be utilized to monitor and predict therapy response in vivo. For this purpose HuCCT-1 cholangiocarcinoma cells were used to create a xenograft mouse model of human cholangiocarcinoma. […] Tumor volumes were measured and compared with tumors from animals that received drug vehicle alone.

ERK1/2 [5] = assay: HuCCT-1 xenograft tumor FNAB Western blot, ERK1/2 activity; type: in vivo, human; details: in vivo
Description: as §5
Fine needle aspirates were obtained with a 25G needle and 10 ml syringe, passing the needle through the tumor 10 times with application of 1-2 ml suction The aspirated material was expressed onto clear glass slides and smeared. All smears were allowed to air dry and then stained with Diff-Quik stain (Baxter Healthcare, Miami, Fla.). Five to ten AD/DQ-stained cytological smears were prepared from each tumor sample. The cellular composition of each aspirate was assessed by cytopathologists.
(§6) Total cell lysates were obtained from either cells cultured in vitro or from tumor FNAB samples. […] Immunoreactive proteins were visualized by enhanced chemiluminescence (Amersham International, United Kingdom). Total and phospho-ERK1/2 proteins were quantified by sandwich [LISA kits (BioSource International, Camarillo, Calif., USA) as described in the manufacturer's protocols. The reaction was read at 450 nm in an ELISA plate reader.
Next, whether FNAB samples obtained from tumor tissue at the early stage of therapy can be used to predict tumor response was examined. […] Expression and phosphorylation levels of ERK 1/2 were analyzed on Western blot by using extracts prepared from AD/DQ-stained FNAB samples.

ERK1/2 [6] = assay: HuCCT-1 xenograft tumor FNAB phospho-/total ERK1/2 ELISA; type: in vivo, human
Description: as §5, §6
Western blot analysis of protein samples is a conventional method for phosphoprotein analysis, but is limited in throughput, quantitative precision and requires large sample amounts. ELISA assays offer alternatives to Western blot with higher throughput and increased sensitivity. […] For this purpose the tumor FNAB samples, which have been analyzed on Western blot above (FIG. 16A), were used to assess the expression and phosphorylation of ERK1/2 proteins by the total and phospho-specific ERK1/2 ELISA assays, respectively.
The amounts of phosphorylated ERK1/2 were normalized for the total contents of these proteins in each sample group and therapy-mediated changes in their phosphorylation status were quantified.

| Structure (SMILES) | inhibition of EGF-induced ERK1/2 phosphorylation (phospho-ELISA normalized for total ERK1/2) (ERK1/2 [1]) [%] | phosphorylation of ERK1/2 (ERK1/2 [2]) | phosphorylation of AKT (AKT) | ERK1/2 phosphorylation ex vivo (ERK1/2 [3]) | ERK1/2 activity in vivo (ERK1/2 [4]) | decrease in tumor volume (HuCCT-1 tumors) [%] | ERK1/2 activity, serial FNAB sampling (ERK1/2 [5]) | phosphorylation levels of ERK1/2 by phospho-ERK1/2 ELISA (raw data) (ERK1/2 [6]; HuCCT-1 tumor FNAB samples of treated animals) | increase of ERK1/2 phosphorylation (normalized for total ERK1/2) (ERK1/2 [6]; HuCCT-1 tumor FNAB, gefitinib alone) [%] |
| --- | --- | --- | --- | --- | --- | --- | --- | --- | --- |
| COc1cc2ncnc(Nc3cccc(Cl)c3)c2cc1OC [AG1478] | 80 | reduced the phosphorylation of both ERK1/2 and AKT proteins | reduced the phosphorylation of both ERK1/2 and AKT proteins | – | – | – | – | – | – |
| COc1cc2ncnc(Nc3ccc(F)c(Cl)c3)c2cc1OCCCN1CCOCC1 [gefitinib, Gefitinib] | – | – | – | failed to block ERK1/2 phosphorylation | failed to block ERK1/2 activity | 4 | neither of these agents alone caused inhibition | neither gefitinib nor CI-1040 treatment alone caused any significant change | 17 |
